Results published in US10660967B2, “Curcumin conjugates and methods of use thereof” (priority 2016, dated 2020).
Read-outs that look alike come from different tables or passages of the source.

Legend:
[1] = tested on: PHA-stimulated splenocytes; test: Proliferative response of PHA-stimulated splenocytes (MTT assay); format: cell-based; settings: PHA 5 μg/ml, 72 hr; compounds at 5 μM (method says 10 μM); ratio of O.D. versus vehicle control
Protocol: Immunomodulatory effects of the synthesized curcumin conjugates on the proliferative response of PHA-stimulated splenocytes were evaluated. The effect of curcumin and its amino acid conjugates on splenocyte viability and proliferation in response to a T cell miotgen (Phytohaemagglutinin; PHA) was evaluated using the MTT assay. Freshly prepared splenocytes (1×10^6 cells/200 μl/well) were cultured in a 96-well U-bottom microtiter plate (Nunc) in complete medium. Cells were treated with tested compounds at a final concentration of 10 μM, vehicle (DMSO) or left untreated in triplicate then incubated at 37° C. and 5% CO2. When testing the immunoregulatory effects of the compounds on splenocyte stimulation, PHA (5 μg/ml) was added to the culture media to induce T cell proliferation. The proliferative response to PHA+vehicle and vehicle alone served as controls. After 72 hr, media were removed after pelleting the cells by centrifugation and MTT salt solution (5 mg/ml) was added into each well then incubated at 37° C. for 4 h. Afterwards, formazan crystals were dissolved by adding 150 μl 10% sodium dodecyl sulfate (SDS). Absorbance was measured with a spectrophotometer at 570 nm and reference wavelength of 690 nm.
Splenocyte stimulation index was determined as the ratio of O.D. values in tested compounds versus vehicle control cultures.

[2] = tested on: lipopolysaccharide-stimulated peritoneal macrophages; test: Production of nitric oxide by lipopolysaccharide-stimulated peritoneal macrophages (Greiss reagent); format: cell-based; set-up: Potency (%): % inhibition of nitric oxide production relative to lipopolysaccharide-stimulated macrophages: concentration or dose not given beside the values; settings: LPS-stimulated peritoneal macrophages; for Nitric oxide (nitrite) concentration, μM (average ± SD): 24 h, nitrite by Greiss reagent
Protocol: The effects of the synthesized curcumin conjugates on the production of nitric oxide (μM) by lipopolysaccharide-stimulated peritoneal macrophages were evaluated.
Two milliliters of macrophage cells were seeded in 12-well tissue culture plates in nitrite-free medium supplemented with 0.1% bovine serum albumin and incubated at 37° C. LPS±epinephrine, norepinephrine, or dopamine at […] concentrations was added to some wells. The concentrations of LPS used ranged from 0.5 to 10 ng/ml. After incubation for 24 h, supernatants were collected for measuring nitric oxide (NO) by spectrophotometry. The production of NO was determined from the accumulation of nitrite (NO2), the metabolic end product of NO metabolism, in the medium using the Greiss reagent. About equal volumes (100 μl) of sample and Greiss reagent (1:1 mixture of 1% sulfanilamide in 5% phosphoric acid, and 0.1% a-naphthylamine in distilled water) were mixed and incubated at room temperature for 15 min, and absorbance was measured at 532 nm on a spectrophotometer.

[3] = tested on: Salmonella typhi ATCC19430; test: Antimicrobial MIC, agar dilution; format: cell-based; settings: Salmonella enterica, read-out: Minimum inhibitory concentration (MIC)
[4] = tested on: HCT116 (colon) carcinoma cell line; test: Anti-tumor properties, MTT; format: cell-based; settings: Homo sapiens, HCT-116; HCT116, 100 μM, 72 h; read-out: Percentage growth of tumor cell lines treated with the tested compounds (±SD)
Protocol: (§1) Anti-tumor properties of curcumin conjugates were evaluated. The synthesized curcumin-amino acid conjugates and curcumin itself were screened for their antitumor properties against human tumor cell lines utilizing HepG2 (hepatocellular), MCF7 (breast), and HCT116 (colon) carcinoma cell lines by the standard mitochondrial dependent reduction of yellow MTT [3-(4,5-dimethylthiazol-2-yl)-2,5-diphenyl-tetrazolium bromide] to purple formazan technique. Cancer cells were obtained from the Egyptian Company for Production of Vaccines, Sera and Drugs (VACSERA), Cairo, Egypt. Media, chemicals and supplies for the bio-assay were obtained from Biowest, Gibco and Lonza Companies. Cells were suspended in RPMI-1640 medium for HepG2, DMEMF12 for MCF-7, and DMEM for HCT116 in addition to 1% antibiotic-antimycotic mixture (10 […] potassium penicillin, 10 […] streptomycin sulfate and […] amphotericin B), 10% fetal bovine serum and 1% L-glutamine at 37° C., under 5% CO2 and 95% humidity. Cells were seeded at a concentration of 10×10^3 cells per well in fresh complete growth medium in 96-well tissue culture microtiter plates for 24 h. Media was aspirated, 180 μL fresh medium (without serum) were added and cells were incubated with different concentrations of sample to give a final concentration of 100 μM. 0.5% DMSO was used as a negative control and doxorubicin was used as a positive control (standard reference). Triplicate wells were prepared for each individual tested compound/dose. After 72 h of incubation, the medium was aspirated, 40 μL MTT salt (2.5 mg ml^1) were added to each well and incubated for an additional 4 h at 37° C. To stop the reaction and dissolve the formed crystals, 200 μL of 10% sodium dodecyl sulfate (SDS) in deionized water were added to each well and incubated overnight at 37° C. The absorbance was then measured at 595 nm with a reference wavelength of 620 nm. Data were collected as mean values for experiments performed in triplicates for each compound which had been measured by MTT assay.
(§2) The percentage of cell survival was calculated according to equation (4): […]
(§3) The IC50 was determined using Graph-Pad PRISM version-5 software. Statistical calculations for determination of the mean and standard deviation (SD) values were determined by SPSS 16 software.

[5] = tested on: HepG2 (hepatocellular) carcinoma cell line; test: Anti-tumor properties, MTT; format: cell-based; settings: Homo sapiens; HepG2, 100 μM, 72 h; read-out: Percentage growth of tumor cell lines treated with the tested compounds (±SD)
Protocol: as §1, §2, §3

[6] = tested on: MCF7 (breast) carcinoma cell line; test: Anti-tumor properties, MTT; format: cell-based; settings: Homo sapiens; MCF7, 100 μM, 72 h; read-out: Percentage growth of tumor cell lines treated with the tested compounds (±SD)
Protocol: as §1, §2, §3

MCF-7 cells = test: Effect on doxorubicin induced cytotoxicity (MTT); settings: for Percentage of viable cells MCF-7 (average ± SD): 10 μM DOX in combination with 100 μM curcumin derivative, 48 hr; for viability at 100 µM: Homo sapiens, MCF7, 48 h, read-out: Percentage of viable cells MCF-7 (average ± SD)
Protocol: The effects of curcumin conjugates on doxorubicin induced cytotoxicity were evaluated. In order to further examine whether curcumin derivatives can enhance conventional chemotherapeutic agents, MCF-7 cells were treated with 100 μM curcumin derivatives alone or in combination with 10 μM doxorubicin (DOX) for 48 hr. Control cultures received only medium, vehicle (DMSO), or vehicle+DOX. The percentage of viable cells was determined by MTT assay according to equation (5): […]

[7] = tested on: Staphylococcus aureus ATCC25923; test: Antimicrobial MIC, agar dilution
[8] = tested on: Streptococcus pyogenes ATCC19615; test: Antimicrobial MIC, agar dilution
[9] = tested on: Pseudomonas aeruginosa ATCC27853; test: Antimicrobial MIC, agar dilution
[10] = tested on: Candida albicans (local isolate); test: Antimicrobial MIC, agar dilution; settings: Candida albicans, read-out: Minimum inhibitory concentration (MIC)
[11] = ATCC25923, 18 h, read-out: Minimum inhibitory concentration (MIC)
[12] = ATCC25923, read-out: Minimum inhibitory concentration (MIC)
[13] = ATCC19615, 18 h, read-out: Minimum inhibitory concentration (MIC)
[14] = ATCC19615, read-out: Minimum inhibitory concentration (MIC)
[15] = ATCC27853, 18 h, read-out: Minimum inhibitory concentration (MIC)
[16] = ATCC27853, read-out: Minimum inhibitory concentration (MIC)

COc1cc(/C=C/C(=O)CC(=O)/C=C/c2ccc(OC(=O)[C@@H](NC(=O)OCc3ccccc3)C(C)C)c(OC)c2)ccc1OC(=O)[C@@H](NC(=O)OCc1ccccc1)C(C)C [Cbz-Val-Cur, ((1E,6E)-3,5-dioxohepta-1,6-diene-1,7-diyl)bis(2-methoxy-4,1-phenylene) (2S,2′S)-bis(2-(((benzyloxy)carbonyl)amino)-3-methylbutanoate)]
Stimulation Index (average ± SD) [1]: 2.87 ± 0.11
Potency (%): % inhibition of nitric oxide production relative to lipopolysaccharide-stimulated macrophages [2]: 5.68%
Nitric oxide (nitrite) concentration, μM (average ± SD) [2]: 25.76 ± 0.99 µM
MIC ([3]; 18 h): 0.125 µg/mL
MIC [3]: 0.15 µM
activity at 100 µM [4]: 112 ± 7.9%
activity at 100 µM [5]: 92.4 ± 2.8%
activity at 100 µM [6]: 85%
Percentage of viable cells MCF-7 (average ± SD) (MCF-7 cells): 49.68 ± 1.46
viability at 100 µM (MCF-7 cells): 99.2 ± 2.15%
MIC [7, 11]: 0.125 µg/mL
MIC [7, 12]: 0.15 µM
MIC [8, 13]: 0.5 µg/mL
MIC [8, 14]: 0.599 µM
MIC [9, 15]: 0.25 µg/mL
MIC [9, 16]: 0.299 µM
MIC ([10]; 18 h): 1 µg/mL
MIC [10]: 1.2 µM

COc1cc(/C=C/C(=O)CC(=O)/C=C/c2ccc(OC(=O)[C@H](C)NC(=O)OCC3c4ccccc4-c4ccccc43)c(OC)c2)ccc1OC(=O)[C@H](C)NC(=O)OCC1c2ccccc2-c2ccccc21 [Fmoc-Ala-Cur, ((1E,6E)-3,5-dioxohepta-1,6-diene-1,7-diyl)bis(2-methoxy-4,1-phenylene) (2S,2′S)-bis(2-((((9H-fluoren-9-yl)methoxy)carbonyl)amino)propanoate)]
Stimulation Index (average ± SD) [1]: 2.22 ± 0.41
Potency (%): % inhibition of nitric oxide production relative to lipopolysaccharide-stimulated macrophages [2]: 20.22%
Nitric oxide (nitrite) concentration, μM (average ± SD) [2]: 21.79 ± 2.71 µM
MIC ([3]; 18 h): 0.25 µg/mL
MIC [3]: 0.262 µM
activity at 100 µM [4]: 96.9 ± 3.2%
activity at 100 µM [5]: 78.3 ± 5.1%
activity at 100 µM [6]: 73.6 ± 2.2%
viability at 100 µM (MCF-7 cells): 99.2 ± 3.65%
MIC [7, 11]: 0.5 µg/mL
MIC [7, 12]: 0.524 µM
MIC [8, 13]: 0.5 µg/mL
MIC [8, 14]: 0.524 µM
MIC [9, 15]: 0.25 µg/mL
MIC [9, 16]: 0.262 µM
MIC ([10]; 18 h): 1 µg/mL
MIC [10]: 1.05 µM

COc1cc(/C=C/C(=O)CC(=O)/C=C/c2ccc(OC(=O)[C@H](CC(C)C)NC(=O)OCC3c4ccccc4-c4ccccc43)c(OC)c2)ccc1OC(=O)[C@H](CC(C)C)NC(=O)OCC1c2ccccc2-c2ccccc21 [Fmoc-Leu-Cur, ((1E,6E)-3,5-dioxohepta-1,6-diene-1,7-diyl)bis(2-methoxy-4,1-phenylene) (2S,2′S)-bis(2-((((9H-fluoren-9-yl)methoxy)carbonyl)amino)-4-methylpentanoate)]
Stimulation Index (average ± SD) [1]: 2.16 ± 0.13
Potency (%): % inhibition of nitric oxide production relative to lipopolysaccharide-stimulated macrophages [2]: 21.88%
Nitric oxide (nitrite) concentration, μM (average ± SD) [2]: 21.34 ± 0.86 µM
MIC ([3]; 18 h): 0.5 µg/mL
MIC [3]: 0.481 µM
activity at 100 µM [4]: 99.5 ± 3.8%
activity at 100 µM [5]: 103 ± 2.6%
activity at 100 µM [6]: 83 ± 1.1%
Percentage of viable cells MCF-7 (average ± SD) (MCF-7 cells): 41.16 ± 2.33
viability at 100 µM (MCF-7 cells): 98.2 ± 2.98%
MIC [7, 11]: 0.25 µg/mL
MIC [7, 12]: 0.241 µM
MIC [8, 13]: 0.5 µg/mL
MIC [8, 14]: 0.481 µM
MIC [9, 15]: 0.25 µg/mL
MIC [9, 16]: 0.241 µM
MIC ([10]; 18 h): 0.5 µg/mL
MIC [10]: 0.481 µM

COc1cc(/C=C/C(=O)CC(=O)/C=C/c2ccc(OC(=O)[C@H](Cc3ccccc3)NC(=O)OCC3c4ccccc4-c4ccccc43)c(OC)c2)ccc1OC(=O)[C@H](Cc1ccccc1)NC(=O)OCC1c2ccccc2-c2ccccc21 [Fmoc-Phe-Cur, ((1E,6E)-3,5-dioxohepta-1,6-diene-1,7-diyl)bis(2-methoxy-4,1-phenylene) (2S,2′S)-bis(2-((((9H-fluoren-9-yl)methoxy)carbonyl)amino)-3-phenylpropanoate)]
Stimulation Index (average ± SD) [1]: 1.78 ± 0.10
Potency (%): % inhibition of nitric oxide production relative to lipopolysaccharide-stimulated macrophages [2]: 31.01%
Nitric oxide (nitrite) concentration, μM (average ± SD) [2]: 18.84 ± 0.69 µM
MIC ([3]; 18 h): 0.25 µg/mL
MIC [3]: 0.226 µM
activity at 100 µM [4]: 110 ± 7.3%
activity at 100 µM [5]: 108 ± 3.6%
activity at 100 µM [6]: 84.7 ± 3.6%
Percentage of viable cells MCF-7 (average ± SD) (MCF-7 cells): 42.49 ± 2.71
viability at 100 µM (MCF-7 cells): 98.3 ± 2.21%
MIC [7, 11]: 0.25 µg/mL
MIC [7, 12]: 0.226 µM
MIC [8, 13]: 0.125 µg/mL
MIC [8, 14]: 0.113 µM
MIC [9, 15]: 2 µg/mL
MIC [9, 16]: 1.81 µM
MIC ([10]; 18 h): 0.5 µg/mL
MIC [10]: 0.452 µM

COc1cc(/C=C/C(=O)CC(=O)/C=C/c2ccc(OC(=O)[C@@H](NC(=O)OCC3c4ccccc4-c4ccccc43)C(C)C)c(OC)c2)ccc1OC(=O)[C@@H](NC(=O)OCC1c2ccccc2-c2ccccc21)C(C)C [Fmoc-Val-Cur, ((1E,6E)-3,5-dioxohepta-1,6-diene-1,7-diyl)bis(2-methoxy-4,1-phenylene) (2S,2′S)-bis(2-((((9H-fluoren-9-yl)methoxy)carbonyl)amino)-3-methylbutanoate)]
Stimulation Index (average ± SD) [1]: 2.55 ± 0.13
Potency (%): % inhibition of nitric oxide production relative to lipopolysaccharide-stimulated macrophages [2]: 12.46%
Nitric oxide (nitrite) concentration, μM (average ± SD) [2]: 23.91 ± 0.87 µM
MIC ([3]; 18 h): 0.5 µg/mL
MIC [3]: 0.494 µM
activity at 100 µM [4]: 81.8 ± 5.8%
activity at 100 µM [5]: 116 ± 3.3%
activity at 100 µM [6]: 83.2 ± 0.8%
Percentage of viable cells MCF-7 (average ± SD) (MCF-7 cells): 25.15
viability at 100 µM (MCF-7 cells): 100 ± 1.95%
MIC [7, 11]: 0.25 µg/mL
MIC [7, 12]: 0.247 µM
MIC [8, 13]: 0.5 µg/mL
MIC [8, 14]: 0.494 µM
MIC [9, 15]: 0.5 µg/mL
MIC [9, 16]: 0.494 µM
MIC ([10]; 18 h): 0.5 µg/mL
MIC [10]: 0.494 µM
